# Assay results: PMC6882824, “Engineering of chimeric peptides as antagonists for the G protein-coupled receptor, RXFP4” (Scientific Reports, 2019)
# Read-outs that look alike come from different tables or passages of the source. Bridge positions count the residues as written; N and C are the ends. Peptide text beside a SMILES is read from it. I, II: the chains in the order shown.
# Assays:
# RXFP4 [1] = molecular target: T1, RXFP4 (Homo sapiens, UniProt Q8TDU9); assay: Competition binding in CHO-K1-RXFP4 cells (Eu-DTPA-mINSL5); set-up: expressed in transfected cells; host or cells: CHO-K1 (ATCC), stably transfected; details: CHO-K1 cells stably transfected with RXFP4, competition with 5 nM Eu-DTPA-mINSL5
# T1 sequence (Q8TDU9 whole entry): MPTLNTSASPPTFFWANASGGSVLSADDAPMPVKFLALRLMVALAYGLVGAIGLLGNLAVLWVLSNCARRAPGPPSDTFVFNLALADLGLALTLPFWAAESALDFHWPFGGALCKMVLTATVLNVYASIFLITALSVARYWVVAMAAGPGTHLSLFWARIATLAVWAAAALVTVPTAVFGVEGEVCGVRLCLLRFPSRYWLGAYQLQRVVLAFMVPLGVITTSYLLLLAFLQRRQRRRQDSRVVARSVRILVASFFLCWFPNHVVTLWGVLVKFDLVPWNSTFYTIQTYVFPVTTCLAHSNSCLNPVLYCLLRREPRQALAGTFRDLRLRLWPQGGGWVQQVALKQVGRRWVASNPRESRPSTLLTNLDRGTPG
# Procedure: (§1) Chinese hamster ovary CHO-K1 cells (sourced from American Type Culture Collection (ATCC), Maryland, USA) stably transfected with RXFP3[33] or RXFP4[9] were plated out onto precoated poly-L-lysine 96-well view plates at a density of 50 000 cells per well. Medium was aspirated off and the cells were washed with phosphate-buffered saline (PBS) before competition binding assays were performed with 5 nM Eu-H3B1–22R[34] (RXFP3 ligand) or 5 nM Eu-DTPA-mINSL5[9] (RXFP4 ligand) as previously described. Competition binding curves were performed in triplicate and each experiment was performed independently at least three times. Fluorescent measurements were carried out on a BMG POLARstar plate reader (BMG Labtech, Melbourne, Australia. Pooled data are presented as mean ± S.E of specific binding and are fitted using one-site binding curve in GraphPad Prism version 8 (GraphPad Inc., San Diego, USA). Statistical analyses were conducted using one-way analysis of variance with uncorrected Fisher’s least significant difference (LSD) post-hoc analysis in GraphPad Prism version 8.
# RXFP3 [2] = molecular target: T2, RXFP3 (Homo sapiens, UniProt Q9NSD7); assay: cAMP agonist assay (inhibition of forskolin-induced cAMP, pCRE β-galactosidase reporter) in CHO-K1-RXFP3 cells; assay type: cell-based; details: SEM; read-out: RXFP3 Activity pEC50 (converted)
# T2 construct: expressed in transfected cells; host or cells: CHO-K1 (ATCC), stably transfected
# T2 sequence (Q9NSD7 1-469): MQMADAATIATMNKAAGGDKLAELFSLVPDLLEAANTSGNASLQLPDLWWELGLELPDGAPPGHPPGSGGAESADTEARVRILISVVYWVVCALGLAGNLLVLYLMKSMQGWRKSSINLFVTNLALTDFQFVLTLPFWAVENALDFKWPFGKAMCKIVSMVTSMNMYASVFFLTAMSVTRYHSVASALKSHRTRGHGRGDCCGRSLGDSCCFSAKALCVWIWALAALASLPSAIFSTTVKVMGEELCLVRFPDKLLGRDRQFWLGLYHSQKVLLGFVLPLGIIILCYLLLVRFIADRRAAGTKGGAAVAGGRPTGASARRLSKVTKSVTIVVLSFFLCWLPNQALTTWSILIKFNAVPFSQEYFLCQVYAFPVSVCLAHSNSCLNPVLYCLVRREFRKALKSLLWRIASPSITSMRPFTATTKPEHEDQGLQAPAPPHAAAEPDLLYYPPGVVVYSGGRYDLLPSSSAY
# Procedure: (§2) The peptides were tested for their ability to inhibit forskolin induced cAMP activity in CHO-K1-RXFP3 or CHO-K1-RXFP4 cells transfected with a pCRE (cAMP Response Element) β-galactosidase reporter plasmid as previously described[9],[34]. For agonist assays cells were stimulated with forskolin (5 µM for RXFP3, 1 µM for RXFP4) plus or minus increasing concentrations of each peptide for 6 hours. For antagonist assays cells were stimulated with forskolin as in agonist assays plus increasing concentrations of each peptide for 10 minutes followed by stimulation with agonist at an ~EC80 concentration for a further 6 hours (10 nM Analogue 2 for RXFP3 and 16.6 nM Analogue 13 for RXFP4). Each peptide was tested in triplicate and each experiment was performed independently at least three times. Agonist data was expressed as the % Forskolin activity whereby 100% was defined as Forskolin alone and 0% as maximum agonist stimulation (1 µM Analogue 2 for RXFP3 and 1 µM Analogue 13 for RXFP4). […] Data were analysed and plotted using GraphPad PRISM 8 and are expressed as the mean ± SEM of the pooled data. Statistical analysis was conducted using one-way ANOVA with Uncorrected Fisher’s LSD post-hoc analysis in GraphPad Prism version 8.
# RXFP3 [3] = molecular target: T2, RXFP3; assay: Competition binding in CHO-K1-RXFP3 cells (Eu-H3B1-22R); details: CHO-K1 cells stably transfected with RXFP3, competition with 5 nM Eu-H3B1-22R
# Procedure: as §1
# RXFP4 [4] = molecular target: T1, RXFP4; assay: cAMP agonist assay (inhibition of forskolin-induced cAMP, pCRE β-galactosidase reporter) in CHO-K1-RXFP4 cells; assay type: cell-based; set-up: expressed in transfected cells; host or cells: CHO-K1 (ATCC), stably transfected; details: for RXFP4 Activity pEC50: CHO-K1-RXFP4 cells, inhibition of 1 µM forskolin-induced cAMP, 6 hours, mean ± SEM, n in cell
# Procedure: as §2
# RXFP3 [5] = molecular target: T2, RXFP3; assay: cAMP antagonist assay against 10 nM analogue 2 in CHO-K1-RXFP3 cells; assay type: cell-based; details: SEM; read-out: RXFP3 Emax (antagonist efficacy)
# Procedure: as §2
# RXFP4 [6] = molecular target: T1, RXFP4; assay: cAMP antagonist assay against 16.6 nM analogue 13 in CHO-K1-RXFP4 cells; assay type: cell-based; set-up: expressed in transfected cells; host or cells: CHO-K1 (ATCC), stably transfected; details: SEM; read-out: RXFP4 Emax (antagonist efficacy)
# Procedure: as §2
smiles,measurement,setting,value
"CC[C@H](C)[C@@H]1NC(=O)[C@H](Cc2ccccc2)NC(=O)[C@H](CCC(=O)O)NC(=O)[C@H](CCCNC(=N)N)NC(=O)CNC(=O)[C@@H](NC(=O)[C@H](CC(C)C)NC(=O)[C@H](CCCNC(=N)N)NC(=O)[C@@H](NC(=O)CNC(=O)[C@H](Cc2ccc(O)cc2)NC(=O)[C@@H]2CCCN2C(=O)[C@H](C)NC(=O)[C@H](C)NC(=O)[C@@H](N)CCCNC(=N)N)C(C)C)CSSC[C@H](N)C(=O)N[C@@H](CCCCN)C(=O)N[C@@H](Cc2c[nH]c3ccccc23)C(=O)NCC(=O)N[C@@H](CO)C(=O)N[C@@H](C)C(=O)N[C@@H](CCCCN)C(=O)N[C@@H](CO)C(=O)N[C@@H](CCC(=O)O)C(=O)N[C@@H]([C@@H](C)CC)C(=O)N[C@@H](CO)C(=O)N[C@@H](CO)C(=O)N[C@@H](CC(C)C)C(=O)N[C@H](C(=O)O)CSSC[C@@H](C(=O)NCC(=O)NCC(=O)N[C@@H](CO)C(=O)N[C@@H](CCCNC(=N)N)C(=O)N[C@@H](Cc2c[nH]c3ccccc23)C(=O)O)NC(=O)[C@H]([C@@H](C)O)NC(=O)[C@H](Cc2ccccc2)NC(=O)[C@H]([C@@H](C)CC)NC(=O)[C@H](C(C)C)NC(=O)[C@H](C)NC(=O)[C@H](CCCNC(=N)N)NC1=O [Analogue 2, reference compound]",Ki,RXFP4 [1]; read-out: RXFP4 Binding Ki,79.4 nM
same,EC50,RXFP3 [2],3.72 nM
same,Ki,RXFP3 [3]; read-out: RXFP3 Binding Ki,19.1 nM
same,EC50,RXFP4 [4],19.9 nM
"CC[C@H](C)[C@@H]1NC(=O)[C@H](Cc2ccccc2)NC(=O)[C@H](CCC(=O)O)NC(=O)[C@H](CCCNC(=N)N)NC(=O)CNC(=O)[C@@H](NC(=O)[C@H](CC(C)C)NC(=O)[C@H](CCCNC(=N)N)NC(=O)[C@@H](NC(=O)CNC(=O)[C@H](Cc2ccc(O)cc2)NC(=O)[C@@H]2CCCN2C(=O)[C@H](C)NC(=O)[C@H](C)NC(=O)[C@@H](N)CCCNC(=N)N)C(C)C)CSSC[C@H](N)C(=O)N[C@@H]([C@@H](C)O)C(=O)N[C@@H](CC(=O)O)C(=O)NCC(=O)N[C@@H](C)C(=O)N[C@@H](CO)C(=O)N[C@@H](CCSC)C(=O)N[C@@H](CCCCN)C(=O)N[C@@H](CC(=O)O)C(=O)N[C@@H](CC(C)C)C(=O)N[C@@H](CO)C(=O)N[C@@H](C)C(=O)N[C@@H](CC(C)C)C(=O)N[C@H](C(=O)O)CSSC[C@@H](C(=O)N[C@@H](CCCNC(=N)N)C(=O)O)NC(=O)[C@H]([C@@H](C)CC)NC(=O)[C@H](Cc2ccccc2)NC(=O)[C@H]([C@@H](C)CC)NC(=O)[C@H](C(C)C)NC(=O)[C@H](C)NC(=O)[C@H](CCCNC(=N)N)NC1=O [Analogue 16] (I: H-RAAPYGVRLCGREFIRAVIFICR-OH / II: H-CTDGASMKDLSALC-OH; disulfide I:10-II:1, I:22-II:14; N-terminus assumed)",Emax,RXFP3 [5],55.8 ± 3.4%
same,Emax,RXFP4 [6],2.1 ± 4.7%
same,RXFP4 Activity pEC50,RXFP4 [4],Weak partial agonist (4)
"CC[C@H](C)[C@@H]1NC(=O)[C@H](Cc2ccccc2)NC(=O)[C@H]([C@@H](C)CC)NC(=O)[C@H](C(C)C)NC(=O)[C@H]([C@@H](C)O)NC(=O)[C@H](CCCNC(=N)N)NC(=O)[C@H]([C@@H](C)CC)NC(=O)[C@H](Cc2ccccc2)NC(=O)[C@H](CCC(=O)O)NC(=O)[C@H](CC(C)C)NC(=O)CNC(=O)[C@@H](NC(=O)[C@H](CC(C)C)NC(=O)[C@H](CCCNC(=N)N)NC(=O)[C@@H](NC(=O)CNC(=O)[C@H](CCC(=O)O)NC(=O)[C@H](CCCCN)NC(=O)[C@H](C)NC(=O)[C@H](C)NC(=O)[C@@H](N)CCCNC(=N)N)C(C)C)CSSC[C@H](N)C(=O)N[C@@H]([C@@H](C)O)C(=O)N[C@@H](CC(=O)O)C(=O)NCC(=O)N[C@@H](C)C(=O)N[C@@H](CO)C(=O)N[C@@H](CCSC)C(=O)N[C@@H](CCCCN)C(=O)N[C@@H](CC(=O)O)C(=O)N[C@@H](CC(C)C)C(=O)N[C@@H](CO)C(=O)N[C@@H](C)C(=O)N[C@@H](CC(C)C)C(=O)N[C@H](C(=O)O)CSSC[C@@H](C(=O)N[C@@H](CCCNC(=N)N)C(=O)O)NC1=O [Analogue 20] (I: H-RAAKEGVRLCGLEFIRTVIFICR-OH / II: H-CTDGASMKDLSALC-OH; disulfide I:10-II:1, I:22-II:14; N-terminus assumed)",Emax,RXFP3 [5],19.9 ± 2.3%
same,Emax,RXFP4 [6],8.1 ± 9.5%
same,RXFP4 Activity pEC50,RXFP4 [4],Weak partial agonist (4)
"CC[C@H](C)[C@@H]1NC(=O)[C@H](Cc2ccccc2)NC(=O)[C@H](CCC(=O)O)NC(=O)[C@H](CCCNC(=N)N)NC(=O)CNC(=O)[C@@H](NC(=O)[C@H](CC(C)C)NC(=O)[C@H](CCCNC(=N)N)NC(=O)[C@@H](NC(=O)CNC(=O)[C@H](Cc2ccc(O)cc2)NC(=O)[C@@H]2CCCN2C(=O)[C@H](C)NC(=O)[C@H](C)NC(=O)[C@@H](N)CCCNC(=N)N)C(C)C)CSSC[C@@H]2NC(=O)[C@@H](NC(=O)[C@H](CO)NC(=O)[C@H](CO)NC(=O)[C@H](CO)NC(=O)[C@H](CC(C)C)NC(=O)CNC(=O)[C@H](C)NC(=O)[C@H](CC(C)C)NC(=O)[C@@H](NC(=O)[C@@H](N)CC(=O)O)C(C)C)CSSC[C@H](NC(=O)CNC(=O)[C@H](Cc3c[nH]c4ccccc34)NC(=O)[C@H](CCCCN)NC2=O)C(=O)N[C@@H](CO)C(=O)N[C@@H](CCCCN)C(=O)N[C@@H](CO)C(=O)N[C@@H](CCC(=O)O)C(=O)N[C@@H]([C@@H](C)CC)C(=O)N[C@@H](CO)C(=O)N[C@@H](CO)C(=O)N[C@@H](CC(C)C)C(=O)N[C@H](C(=O)O)CSSC[C@@H](C(=O)NCC(=O)NCC(=O)N[C@@H](CO)C(=O)N[C@@H](CCCNC(=N)N)C(=O)N[C@@H](Cc2c[nH]c3ccccc23)C(=O)O)NC(=O)[C@H]([C@@H](C)O)NC(=O)[C@H](Cc2ccccc2)NC(=O)[C@H]([C@@H](C)CC)NC(=O)[C@H](C(C)C)NC(=O)[C@H](C)NC(=O)[C@H](CCCNC(=N)N)NC1=O [Relaxin 3 (R3), reference compound]",Ki,"RXFP4 [1]; mean ± SEM, n in cell, SEM, read-out: RXFP4 Binding pKi (converted)",2.29 nM
same,EC50,RXFP3 [2],0.832 nM
same,Ki,"RXFP3 [3]; mean ± SEM, n in cell, SEM, read-out: RXFP3 Binding pKi (converted)",22.9 nM
